#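 Assay format: 96-well plates, 48-hour exposure. GI50 marks 50% less growth. At the TGI there is no net growth.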
# Experiments:
# Test in all cases: NCI tumour cell line growth inhibition, 48 h
# OVCAR-4 ovarian = system: OVCAR-4 ovarian
# SK-MEL-28 melanoma = system: SK-MEL-28 melanoma
# NCI/ADR-RES ovarian = system: NCI/ADR-RES ovarian
# HS 578T breast = system: HS 578T breast
# NCI-H226 lung = system: NCI-H226 lung
# TK-10 renal = system: TK-10 renal
# HOP-62 NSCLC = system: HOP-62 NSCLC
# HCC-2998 colon = system: HCC-2998 colon
# MOLT-4 leukemia = system: MOLT-4 leukemia
# MDA-MB-435 = system: MDA-MB-435
# A549 NSCLC = system: A549 NSCLC
# SK-MEL-2 melanoma = system: SK-MEL-2 melanoma
# BT-549 breast = system: BT-549 breast
# SNB-75 CNS = system: SNB-75 CNS
# ACHN renal = system: ACHN renal
# MDA-MB-468 breast = system: MDA-MB-468 breast
# OVCAR-3 ovarian = system: OVCAR-3 ovarian
# A498 renal = system: A498 renal
# LOX IMVI melanoma = system: LOX IMVI melanoma
# OVCAR-8 ovarian = system: OVCAR-8 ovarian
# SF-295 CNS = system: SF-295 CNS
# SF-539 CNS = system: SF-539 CNS
# U251 CNS = system: U251 CNS
# IGROV1 ovarian = system: IGROV1 ovarian
# MDA-MB-231 breast = system: MDA-MB-231 breast
# SW-620 colon = system: SW-620 colon
# UACC-62 melanoma = system: UACC-62 melanoma
# T-47D breast = system: T-47D breast
# HOP-92 NSCLC = system: HOP-92 NSCLC
# NCI-H522 lung = system: NCI-H522 lung
# HCT-15 colon = system: HCT-15 colon
# COLO 205 colon = system: COLO 205 colon
# UACC-257 melanoma = system: UACC-257 melanoma
# HL-60(TB) leukemia = system: HL-60(TB) leukemia
# KM12 colon = system: KM12 colon
# SK-OV-3 ovarian = system: SK-OV-3 ovarian
# EKVX NSCLC = system: EKVX NSCLC
# SK-MEL-5 melanoma = system: SK-MEL-5 melanoma
# OVCAR-5 ovarian = system: OVCAR-5 ovarian
# K-562 leukemia = system: K-562 leukemia
# SF-268 CNS = system: SF-268 CNS
# DU-145 prostate = system: DU-145 prostate
# HT29 colon = system: HT29 colon
# MCF7 breast = system: MCF7 breast
# CAKI-1 renal = system: CAKI-1 renal
# CCRF-CEM leukemia = system: CCRF-CEM leukemia
# NCI-H23 lung = system: NCI-H23 lung
# HCT-116 colon = system: HCT-116 colon
# SN12C renal = system: SN12C renal
# MALME-3M melanoma = system: MALME-3M melanoma
# PC-3 prostate = system: PC-3 prostate
# UO-31 renal = system: UO-31 renal
# M14 melanoma = system: M14 melanoma
# RXF 393 renal = system: RXF 393 renal
# 786-0 renal = system: 786-0 renal
# SNB-19 CNS = system: SNB-19 CNS
smiles,measurement,setting,value
O=C(NN1C(=O)/C(=C/C=C/c2ccc([N+](=O)[O-])o2)SC1=S)c1ccncc1,GI50,OVCAR-4 ovarian,1620 nM
same,TGI,OVCAR-4 ovarian,3270 nM
same,GI50,SK-MEL-28 melanoma,1540 nM
same,TGI,SK-MEL-28 melanoma,2980 nM
same,GI50,NCI/ADR-RES ovarian,1420 nM
same,TGI,NCI/ADR-RES ovarian,7080 nM
same,GI50,HS 578T breast,1740 nM
same,TGI,HS 578T breast,8200 nM
same,GI50,NCI-H226 lung,1190 nM
same,TGI,NCI-H226 lung,4020 nM
same,GI50,TK-10 renal,1630 nM
same,TGI,TK-10 renal,3030 nM
same,GI50,HOP-62 NSCLC,1580 nM
same,TGI,HOP-62 NSCLC,3140 nM
same,GI50,HCC-2998 colon,1770 nM
same,TGI,HCC-2998 colon,3190 nM
same,GI50,MOLT-4 leukemia,403 nM
same,TGI,MOLT-4 leukemia,2210 nM
same,GI50,MDA-MB-435,634 nM
same,TGI,MDA-MB-435,2220 nM
same,GI50,A549 NSCLC,2860 nM
same,TGI,A549 NSCLC,10800 nM
same,GI50,SK-MEL-2 melanoma,584 nM
same,TGI,SK-MEL-2 melanoma,2020 nM
same,GI50,BT-549 breast,495 nM
same,TGI,BT-549 breast,1660 nM
same,GI50,SNB-75 CNS,1330 nM
same,TGI,SNB-75 CNS,7000 nM
same,GI50,ACHN renal,1460 nM
same,TGI,ACHN renal,2770 nM
same,GI50,MDA-MB-468 breast,1200 nM
same,TGI,MDA-MB-468 breast,2640 nM
same,GI50,OVCAR-3 ovarian,1280 nM
same,TGI,OVCAR-3 ovarian,3010 nM
same,GI50,A498 renal,17100 nM
same,TGI,A498 renal,31000 nM
same,GI50,LOX IMVI melanoma,203 nM
same,TGI,LOX IMVI melanoma,440 nM
same,GI50,OVCAR-8 ovarian,354 nM
same,TGI,OVCAR-8 ovarian,3220 nM
same,GI50,SF-295 CNS,1760 nM
same,TGI,SF-295 CNS,3270 nM
same,GI50,SF-539 CNS,402 nM
same,TGI,SF-539 CNS,1450 nM
same,GI50,U251 CNS,1030 nM
same,TGI,U251 CNS,2660 nM
same,GI50,IGROV1 ovarian,1390 nM
same,TGI,IGROV1 ovarian,2700 nM
same,GI50,MDA-MB-231 breast,655 nM
same,TGI,MDA-MB-231 breast,1940 nM
same,GI50,SW-620 colon,274 nM
same,TGI,SW-620 colon,739 nM
same,GI50,UACC-62 melanoma,377 nM
same,TGI,UACC-62 melanoma,1450 nM
same,GI50,T-47D breast,1730 nM
same,TGI,T-47D breast,4160 nM
same,GI50,HOP-92 NSCLC,1650 nM
same,TGI,HOP-92 NSCLC,3350 nM
same,GI50,NCI-H522 lung,189 nM
same,TGI,NCI-H522 lung,414 nM
same,GI50,HCT-15 colon,184 nM
same,TGI,HCT-15 colon,404 nM
same,GI50,COLO 205 colon,1520 nM
same,TGI,COLO 205 colon,2960 nM
same,GI50,UACC-257 melanoma,1530 nM
same,TGI,UACC-257 melanoma,3310 nM
same,GI50,HL-60(TB) leukemia,1920 nM
same,TGI,HL-60(TB) leukemia,4830 nM
same,GI50,KM12 colon,1630 nM
same,TGI,KM12 colon,4010 nM
same,GI50,SK-OV-3 ovarian,3030 nM
same,TGI,SK-OV-3 ovarian,9270 nM
same,GI50,EKVX NSCLC,1480 nM
same,TGI,EKVX NSCLC,2890 nM
same,GI50,SK-MEL-5 melanoma,1050 nM
same,TGI,SK-MEL-5 melanoma,2240 nM
same,GI50,OVCAR-5 ovarian,1900 nM
same,TGI,OVCAR-5 ovarian,3380 nM
same,GI50,K-562 leukemia,294 nM
same,TGI,K-562 leukemia,> 100000 nM
same,GI50,SF-268 CNS,1690 nM
same,TGI,SF-268 CNS,3950 nM
same,GI50,DU-145 prostate,1960 nM
same,TGI,DU-145 prostate,4800 nM
same,GI50,HT29 colon,1650 nM
same,TGI,HT29 colon,3540 nM
same,GI50,MCF7 breast,451 nM
same,TGI,MCF7 breast,2070 nM
same,GI50,CAKI-1 renal,1470 nM
same,TGI,CAKI-1 renal,2820 nM
same,GI50,CCRF-CEM leukemia,346 nM
same,TGI,CCRF-CEM leukemia,3570 nM
same,GI50,NCI-H23 lung,1230 nM
same,TGI,NCI-H23 lung,2670 nM
same,GI50,HCT-116 colon,239 nM
same,TGI,HCT-116 colon,565 nM
same,GI50,SN12C renal,369 nM
same,TGI,SN12C renal,1620 nM
same,GI50,MALME-3M melanoma,240 nM
same,TGI,MALME-3M melanoma,541 nM
same,GI50,PC-3 prostate,1930 nM
same,TGI,PC-3 prostate,4960 nM
same,GI50,UO-31 renal,1160 nM
same,TGI,UO-31 renal,2390 nM
same,GI50,M14 melanoma,547 nM
same,TGI,M14 melanoma,1930 nM
same,GI50,RXF 393 renal,1260 nM
same,TGI,RXF 393 renal,2650 nM
same,GI50,786-0 renal,960 nM
same,TGI,786-0 renal,2390 nM
same,GI50,SNB-19 CNS,1800 nM
same,TGI,SNB-19 CNS,3930 nM
